Marks after values point to notes of the source that are not given here.
Legend:
Format in all cases: in vivo
[1] = system: Septoria nodorum; assay: Test C: wheat glume blotch, preventive spray on wheat seedlings, disease rating
Outline: (§1)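 Preventive spray to run-off on wheat seedlings; test suspension in acetone:water 50:50 plus 250 ppm surfactant, acetone predissolution at 3% of final volume. Dose 200 ppm (≈500 g/ha) by default, 40 ppm or 50 ppm where flagged.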

[2] = system: Septoria tritici; assay: Test D: wheat leaf blotch, preventive spray on wheat seedlings, disease rating
Outline: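 Preventive test: one day after run-off spraying (200 ppm, equal to 500 g/ha, unless marked 40 or 50 ppm; acetone/water plus 250 ppm Trem 014), seedlings received S. tritici spore inoculum. Disease scored after 48 h at 24 °C in saturated air and 19 further days at 20 °C.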

[3] = system: Erysiphe graminis f. sp. tritici; assay: Test A: wheat powdery mildew, preventive spray on wheat seedlings, disease rating
Outline: as §1

[4] = system: Alternaria solani; assay: Test H: tomato early blight, preventive spray on tomato seedlings, disease rating
Outline: (§2)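 Disease ratings follow a preventive run-off spray of tomato seedlings. Compounds were first dissolved in acetone (3% of volume), then suspended in 50/50 acetone/water containing 250 ppm Trem 014. Test level 200 ppm (equivalent to 500 g/ha) except where marked * for 40 ppm or ** for 50 ppm.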

[5] = system: Botrytis cinerea; assay: Test F: tomato Botrytis, preventive spray on tomato seedlings, disease rating
Outline: as §2

[6] = system: Puccinia recondita f. sp. tritici; assay: Test B: wheat leaf rust, preventive spray on wheat seedlings, disease rating
Outline: as §1

Compound	Percentage Disease Control, Test C ([1]; 40 ppm (*))	Percentage Disease Control, Test D ([2]; 40 ppm (*))	Percentage Disease Control, Test A ([3]; 40 ppm (*))	Percentage Disease Control, Test H ([4]; 200 ppm) [%]	Percentage Disease Control, Test F ([5]; 40 ppm (*))	Percentage Disease Control, Test B ([6]; 40 ppm (*))	Percentage Disease Control, Test H ([4]; 40 ppm (*))	Percentage Disease Control, Test F ([5]; 200 ppm) [%]	Percentage Disease Control, Test A ([3]; 200 ppm) [%]	Percentage Disease Control, Test C ([1]; 200 ppm) [%]	Percentage Disease Control, Test D ([2]; 200 ppm) [%]	Percentage Disease Control, Test B ([6]; 200 ppm) [%]
COC(=O)NCc1cc(-c2ccn(-c3ccc(C(C)C)cc3)n2)ccc1Cl [Cmpd 110]	100* %	97* %	100* %	85	96* %	100* %	–	–	–	–	–	–
COC(=O)NCc1cc(-c2ccn(-c3ccc(Br)cc3)n2)ccc1Cl [Cmpd 111]	100* %	100* %	99* %	–	–	100* %	90* %	95	–	–	–	–
COC(=O)NCc1cc(-c2ccn(-c3cccc(Br)c3)n2)ccc1Cl [Cmpd 112]	100* %	100* %	–	93	–	99* %	–	0	88	–	–	–
COC(=O)NCc1cc(-c2ccn(-c3cccc(C#N)c3)n2)ccc1Cl [Cmpd 113]	–	–	–	0	–	–	–	24	92	100	100	99
COC(=O)NCc1cc(-c2ccn(-c3ccc(C#N)cc3)n2)ccc1Cl [Cmpd 114]	–	–	–	0	–	–	–	0	93	100	100	99
COC(=O)NCc1cc(-c2ccn(-c3cccc(F)c3)n2)ccc1Cl [Cmpd 115]	–	–	–	96	–	–	–	32	98	100	100	99
COC(=O)NCc1cc(-c2ccn(-c3ccc(F)cc3)n2)ccc1Cl [Cmpd 116]	–	–	–	99	–	–	–	0	99	100	96	100
COC(=O)NCc1cc(-c2ccn(-c3ccc(Cl)c(Cl)c3)n2)ccc1Cl [Cmpd 117]	–	–	–	95	–	–	–	94	98	100	100	99
COC(=O)NCc1cc(-c2ccn(-c3ccc(F)c(F)c3)n2)ccc1Cl [Cmpd 118]	–	–	–	99	–	–	–	40	100	100	100	100
COC(=O)NCc1cc(-n2ccc(-c3cccc(C(F)(F)F)c3)n2)ccc1Cl [Cmpd 119]	100* %	100* %	100* %	57	–	100* %	–	51	–	–	–	–
COC(=O)NCc1cc(-n2cnc(-c3cccc(C(F)(F)F)c3)n2)ccc1Cl [Cmpd 120]	–	94* %	98* %	0	–	–	–	0	–	0	–	79
